Assay results reported in US10144723B2, “Treatment of solid tumors by inhibiting MRK/ZAK” (The Feinstein Institute For Medical Research, priority 2014, dated 2018).

What was measured:
c-Abl = c-Abl activity in brain lysates, phospho-Abl western blot; format: in vivo, nude mice; details: treated versus untreated tumor
Description: M443 is a derivative of nilotinib, an inhibitor of the BCR-Abl oncogene. To examine the specificity of M443, the activity of c-Abl was also determined, by blotting the brain lysates with a phospho-Abl-(P-c-Abl) specific antibody. […] As Abl is known to respond to stress, the increase in P-c-Abl may be caused by M443-induced cell stress.

MRK [1] = experiment: Inhibition of MRK in vivo, brain lysates western blot; set-up: species or system nude mice; details: 18 hours after pump implantation
Description: FIG. 10. Inhibition of MRK in vivo. Brains from control and M443-treated animals were harvested 18 hours after pump implantation. Each cerebellum was dissected from the rest of the brain and divided into left (L) and right (R), top (T) and bottom (B) portions. Brain lysates were tested for MRK activity by western blotting. Human HLA (hu-HLA) was used to identify the brain portions containing tumor cells of human origin. Tubulin was used as loading control.
To confirm that M443 administered into the brain inhibited MRK, brain extracts were obtained 18 hours after pump implantation, and MRK activity determined. […] The hu-HLA signal indicates the presence of tumor in the treated sample (lane 5).

MRK [2] = biological target: T1, MRK (Homo sapiens, UniProt Q9NYL2); experiment: MRK activity in K562 cells, western blot; format: cell-based; set-up: endogenous in cells; details: 1 μM, 6 hours
T1 sequence (Q9NYL2 whole entry): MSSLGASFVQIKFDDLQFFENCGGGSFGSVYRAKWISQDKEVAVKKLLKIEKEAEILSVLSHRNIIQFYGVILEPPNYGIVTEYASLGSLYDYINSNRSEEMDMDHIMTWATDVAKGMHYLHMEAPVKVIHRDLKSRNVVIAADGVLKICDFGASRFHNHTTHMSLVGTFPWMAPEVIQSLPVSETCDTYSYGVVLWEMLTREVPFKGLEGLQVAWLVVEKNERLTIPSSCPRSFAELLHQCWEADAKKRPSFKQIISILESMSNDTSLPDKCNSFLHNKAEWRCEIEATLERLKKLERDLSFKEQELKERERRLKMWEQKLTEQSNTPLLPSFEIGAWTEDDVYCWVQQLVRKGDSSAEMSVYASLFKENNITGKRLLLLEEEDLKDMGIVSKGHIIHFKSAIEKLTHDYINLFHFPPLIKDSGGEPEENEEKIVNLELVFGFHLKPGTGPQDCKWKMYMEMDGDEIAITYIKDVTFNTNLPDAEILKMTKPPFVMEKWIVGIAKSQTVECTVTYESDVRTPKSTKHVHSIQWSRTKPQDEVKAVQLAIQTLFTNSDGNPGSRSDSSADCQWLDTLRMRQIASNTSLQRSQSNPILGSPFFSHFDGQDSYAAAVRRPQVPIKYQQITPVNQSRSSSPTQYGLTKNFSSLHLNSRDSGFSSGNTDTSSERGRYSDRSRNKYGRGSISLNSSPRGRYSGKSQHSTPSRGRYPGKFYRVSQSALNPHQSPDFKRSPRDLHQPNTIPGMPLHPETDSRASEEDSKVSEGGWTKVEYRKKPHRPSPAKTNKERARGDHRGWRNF
Description: (§1) FIG. 11. M443 inhibits MRK activity, but not BCR-Abl. K562 cells were treated with DMSO, 1 μM Nilotinib or 1 μM M443 for 6 hours and then they were processed for western blot with the indicated antibodies.

BCR-Abl = biological target: T2, BCR-Abl (Homo sapiens, UniProt P00519); experiment: BCR-Abl activity in K562 cells, western blot; format: cell-based; details: 1 μM, 6 hours
T2 construct: BCR (N-terminal fusion partner, P11274); endogenous in cells; host or cells: K562; the other entry of the earlier key: BCR (P11274, Breakpoint cluster region protein)
T2 sequence (P00519 with tags, fused parts or gaps): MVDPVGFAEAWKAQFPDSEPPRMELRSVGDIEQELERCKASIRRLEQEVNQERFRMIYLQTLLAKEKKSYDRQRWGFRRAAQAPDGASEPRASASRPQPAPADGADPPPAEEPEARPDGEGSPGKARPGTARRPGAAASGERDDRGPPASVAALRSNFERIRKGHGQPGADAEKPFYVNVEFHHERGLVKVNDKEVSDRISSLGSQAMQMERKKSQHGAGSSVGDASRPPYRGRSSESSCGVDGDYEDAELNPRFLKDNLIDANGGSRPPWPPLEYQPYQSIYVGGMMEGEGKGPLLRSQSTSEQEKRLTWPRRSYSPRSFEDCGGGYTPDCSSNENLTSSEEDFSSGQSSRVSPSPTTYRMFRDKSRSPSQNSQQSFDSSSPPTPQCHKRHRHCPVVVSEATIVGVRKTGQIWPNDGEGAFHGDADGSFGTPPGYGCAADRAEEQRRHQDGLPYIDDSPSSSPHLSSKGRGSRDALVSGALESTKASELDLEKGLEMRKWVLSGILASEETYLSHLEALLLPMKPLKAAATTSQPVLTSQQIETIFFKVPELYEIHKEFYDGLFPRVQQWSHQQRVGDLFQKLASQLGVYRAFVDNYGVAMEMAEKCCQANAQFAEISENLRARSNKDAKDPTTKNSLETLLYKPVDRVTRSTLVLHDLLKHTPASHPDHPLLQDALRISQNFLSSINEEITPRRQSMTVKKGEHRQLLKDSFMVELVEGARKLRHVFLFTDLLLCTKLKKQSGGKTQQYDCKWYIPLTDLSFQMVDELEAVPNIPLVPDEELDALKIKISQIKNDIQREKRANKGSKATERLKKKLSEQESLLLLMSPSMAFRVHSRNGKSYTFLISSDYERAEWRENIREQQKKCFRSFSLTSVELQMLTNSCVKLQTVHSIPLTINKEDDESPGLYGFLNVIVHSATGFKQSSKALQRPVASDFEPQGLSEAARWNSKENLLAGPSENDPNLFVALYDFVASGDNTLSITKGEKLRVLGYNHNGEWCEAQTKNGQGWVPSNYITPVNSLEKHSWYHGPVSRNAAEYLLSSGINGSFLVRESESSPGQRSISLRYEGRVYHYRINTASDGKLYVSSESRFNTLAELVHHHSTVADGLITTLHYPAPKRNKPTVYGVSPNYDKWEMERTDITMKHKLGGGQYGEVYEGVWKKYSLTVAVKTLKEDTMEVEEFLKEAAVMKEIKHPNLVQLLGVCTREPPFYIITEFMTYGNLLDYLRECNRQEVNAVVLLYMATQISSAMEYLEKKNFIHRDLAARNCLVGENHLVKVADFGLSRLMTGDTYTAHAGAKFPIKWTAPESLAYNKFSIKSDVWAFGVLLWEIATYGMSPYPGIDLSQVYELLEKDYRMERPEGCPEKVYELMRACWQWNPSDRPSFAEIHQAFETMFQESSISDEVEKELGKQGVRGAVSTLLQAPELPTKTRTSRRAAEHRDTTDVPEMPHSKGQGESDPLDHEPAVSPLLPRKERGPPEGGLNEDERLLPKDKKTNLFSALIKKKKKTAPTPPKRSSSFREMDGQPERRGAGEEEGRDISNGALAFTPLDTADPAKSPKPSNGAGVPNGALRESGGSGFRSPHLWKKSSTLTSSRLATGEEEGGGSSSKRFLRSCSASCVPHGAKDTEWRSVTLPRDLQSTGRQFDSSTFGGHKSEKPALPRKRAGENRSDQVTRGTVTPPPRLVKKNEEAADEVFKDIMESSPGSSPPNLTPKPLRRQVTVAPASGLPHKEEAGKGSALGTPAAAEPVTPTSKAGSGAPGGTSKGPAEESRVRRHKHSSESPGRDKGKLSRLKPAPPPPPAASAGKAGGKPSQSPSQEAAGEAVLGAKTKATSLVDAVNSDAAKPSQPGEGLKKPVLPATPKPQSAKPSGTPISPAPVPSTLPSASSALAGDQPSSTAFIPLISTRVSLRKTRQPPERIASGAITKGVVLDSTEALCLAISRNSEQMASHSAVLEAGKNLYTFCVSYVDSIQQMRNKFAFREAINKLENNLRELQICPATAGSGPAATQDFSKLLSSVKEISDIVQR
Description: as §1

[3] = test system: IMB226 medulloblastoma cells; experiment: Animal model of medulloblastoma, orthotopic implantation, survival; format: in vivo, nude mice
Description: FIG. 9. Kaplan-Meier survival curve. Three weeks after implantation of IMB226 medulloblastoma cells in nude mice, animals were randomized into 4 groups of 12 mice for each treatment. M443 or the vehicle were delivered directly into the tumor via an ALZET pump.
The effect of M443 was tested in an animal model of medulloblastoma that employs orthotopic implantation of IMB226 medulloblastoma cells in nude mice. M443 was administered directly into the tumor using an osmotic pump that is connected to a catheter implanted into the brain in order to bypass the blood-brain barrier.

[4] = test system: UW228 medulloblastoma cells; experiment: Colony formation assay with radiation; format: cell-based; details: 6 hours M443 before radiation, colonies counted after 7 days
Description: FIG. 6. M443 sensitizes UW228 medulloblastoma cells to radiation. UW228 cells were seeded for the colony formation assay at 500 cells/dish. The following day, they were treated for 6 hours with the indicated doses of M443 and then exposed to different doses of radiation. After incubation at 37° C. for 7 days, colonies larger than 50 cells were counted.

4T1 breast cancer cells = experiment: MTT cell viability after X-ray irradiation; format: cell-based; details: 4T1 cells, M443 6 hours before irradiation, MTT 72 hours after
Description: FIG. 8. […] 4T1 breast cancer cells were plated in 96-well plates (750 cells per well/8 wells per condition) and treated with M443 at the indicated concentrations 6 hours before irradiating at the indicated dosages. 72 hours after irradiation MTT solution (1.25 μg/μl) was added to all wells and incubated for an additional 3 hours before cell viability/mitochondrial activity was analyzed. Shown are the means+/−SD of 8 replicate wells.

p38 = experiment: IR-induced signaling downstream of MRK, phospho-p38 western blot; format: cell-based; details: UW228 cells, 500 nM M443 6 hours, 1 hour after IR
Description: (§2) FIG. 7. Inhibition of IR-induced signaling downstream of MRK by M443. UW228 medulloblastoma cells were treated with 500 nM of M443 or with vehicle for 6 hours, and then exposed to IR or not. One hour after IR treatment, cells were harvested and cell lysates were tested by western blot for the activities of MRK, p38 and Chk2 proteins using the respective phospho-specific antibodies.
(§3) By inhibiting MRK activity, M443 was expected to reduce signal transduction downstream of MRK. […] Thus, M443 inhibits MRK activation by IR and its downstream signaling events, which leads to loss of cell viability after exposure to IR.

Chk2 = experiment: IR-induced signaling downstream of MRK, phospho-Chk2 western blot; format: cell-based; details: UW228 cells, 500 nM M443 6 hours, 1 hour after IR
Description: as §2, §3

MRK [5] = biological target: T1, MRK; experiment: Inhibition of endogenous MRK activity induced by radiation in medulloblastoma cells; format: cell-based; set-up: endogenous in cells; host or cells: UW228 medulloblastoma cells
Description: FIG. 7. Inhibition of IR-induced signaling downstream of MRK by M443. […] One hour after IR treatment, cells were harvested and cell lysates were tested by western blot for the activities of MRK, p38 and Chk2 proteins using the respective phospho-specific antibodies.

MRK [6] = experiment: Irreversible inhibition of MRK activity after washout (P-MRK western blot); format: cell-based; details: cells expressing activatable MRK construct, pretreated 6 hours, washed, then homodimerizing drug
Description: FIG. 5. M443 inhibits MRK activity in an irreversible fashion. Cells expressing an activatable MRK construct were pretreated with the indicated inhibitors for 6 hours, then they were washed with PBS 3 times, incubated for 15 minutes, washed once more and after 15 minutes they were treated with the homodimerizing drug to activate MRK. Cell lysates were western blotted with the P-MRK antibody to detect active MRK (top blot). Histograms are data from quantified P-MRK bands from three independent experiments.

MRK [7] = biological target: T1, MRK; set-up: endogenous in cells; host or cells: UW228 medulloblastoma cells; details: reference (6); cited from earlier work

SMILES	P-c-Abl signal in brain lysates (c-Abl)	P-MRK signal in brain lysates (MRK [1])	total MRK levels in tumors (MRK [1])	inhibition of MRK activity in K562 cells (MRK [2])	inhibition of BCR-Abl in K562 cells (BCR-Abl)	survival benefit, M443 on its own ([3]; IMB226 orthotopic in nude mice, M443 into the tumor via osmotic pump, no IR) [days]	increase in survival, combination of M443 and IR ([3]; IMB226 orthotopic in nude mice, M443 into the tumor via osmotic pump, plus IR) [days]	tumor hemorrhage ([3]; M443-treated tumors)	radiosensitization effect on survival ([3]; p<0.0029, 2×2 factorial Cox model)	sensitization to killing by radiation (colony formation) [4]	sensitization to X-ray irradiation (MTT viability) (4T1 breast cancer cells)	activation of p38 by ionizing radiation (p38)	activation of Chk2 by ionizing radiation (Chk2)	IC50 (MRK [5]) [nM]	inhibition of MRK activity (P-MRK) after washout (MRK [6])	binding to MRK (MRK [7])
C=CC(=O)N1CCCC(c2ccnc(Nc3cc(C(=O)Nc4cc(-n5cnc(C)c5)cc(C(F)(F)F)c4)ccc3C)n2)C1 (stereo not shown) [M443]	somewhat increased	none of the fractions from the M443-treated animal had a detectable signal for P-MRK	strongly decreased	as efficient as nilotinib	does not inhibit BCR-Abl	5	16	less hemorrhagic	very significant radiosensitization effect	strongly sensitized	sensitizes breast cancer cells to X-ray irradiation	greatly reduced	greatly reduced	~125	effectively inhibits MRK in an irreversible fashion	
Cc1cn(-c2cc(NC(=O)c3ccc(C)c(Nc4nccc(-c5cccnc5)n4)c3)cc(C(F)(F)F)c2)cn1 [nilotinib]																binds strongly to MRK
